Data on one substance can be found in patent US6569832B1, “Inhibition of beta cell degeneration” (Novo Nordisk A/S, priority 1999, dated 2003).

Experiment [1] has as its system beta-cells. Description: beta-cell proliferation rate (BrDU incorporation) in pancreas of treated ZDF rats. Format: in vivo, male Zucker Diabetic Fatty fa/fa (ZDF) rat. The text has this:
(§1) The male Zucker Diabetic Fatty fa/fa (ZDF) rat is a model of Type 2 diabetes. The rats are insulin resistant but normoglycemic from birth and they develop diabetes from about week 7 to week 10 of age. During the transitional period, the animals go through a state of impaired glucose tolerance. Although the animals are hyperinsulinemic before diabetes onset and during the early stages of diabetes, they later lose glucose-stimulated insulin secretion and finally become almost completely insulinopenic.
We have studied the effects of Arg^34, Lys^26(N-ε-(γ-Glu(N-α-hexadecanoyl)))-GLP-1(7-37) therapy during a period of time when the animals would normally progress from having impaired glucose tolerance to having overt Type 2 diabetes. Three groups of male ZDF rats (Genetic Models Inc, Indianapolis, Ind., USA) were studied and dosed subcutaneously bi-daily with either vehicle (group A), 30 (group B) or 150 μg/kg (group C) of Arg^34, Lys^26(N-ε-(γ-Glu(N-α-hexadecanoyl)))-GLP-1(7-37), n=6 per group. Animals were between 7 and 8 weeks old when dosing was initiated, and fed glucose levels were not different between the groups before dosing began.
Bromodeoxyuridine (BrDU) is incorporated in newly synthesized DNA and thus will label replicating cells. Six hours before sacrifice the rats were given an injection of 100 mg BrDU/kg intraperitoneally. […]

Experiment [2] deals with beta-cells. Description: volume fraction of beta-cells related to total pancreas volume in treated ZDF rats (point counting stereology). In kind it is in vivo, male Zucker Diabetic Fatty fa/fa (ZDF) rat.
Description: as §1
We have studied the effects of Arg^34, Lys^26(N-ε-(γ-Glu(N-α-hexadecanoyl)))-GLP-1(7-37) therapy during a period of time when the animals would normally progress from having impaired glucose tolerance to having overt Type 2 diabetes. […]
Neighbor sections were stained for insulin and the combination of glucagon-somatostatin-pancreatic polypeptide for the measurement of the relative mass of islet beta-cells and nonbeta-cells. […] The nonbeta-cells were stained with a mixture of monoclonal mouse anti-glucagon+rabbit anti-somatostatin+rabbit anti-pancreatic polypeptide, detected by biotinylated swine anti-multible Ig's, avidin peroxidase, and developed with DAB and CuSO4 to give a dark brown stain. […]

The next experiment concerns neonatal rat islet cells. The experiment is described as follows: cytokine-induced apoptosis in neonatal rat islet cells (annexin V-FITC/PI flow cytometry). In kind it is cell-based. The method, then:
Neonatal rats were sacrificed and pancreata were aseptically isolated. Islets of Langerhans were isolated by standard techniques. Intact islets were cultured in 6-well tissue culture plates at 750 islets/well (Nunc, Roskilde, Denmark) with or without 40 U/ml recombinant rat interleukin 1, 100 U/ml interferon-γ, and 100 U/ml tumor necrosis factor-α (all from Peprotech, London, UK) and the indicated doses of the GLP-1 derivative, Arg^34, Lys^26(N-ε-(γ-Glu(N-α-hexadecanoyl)))-GLP-1(7-37). After 24 hours of in vitro culture, single cell suspensions were obtained from the islets by gentle triturating in trypsin. After 2 rounds of washing, islet cells were reacted with annexin V-FITC and propedium iodide (PI) using a commercial staining kit according to the manufactures recommendations (Pharmingen, San Diego, Calif., USA). At the end of incubation the samples were analyzed by flow cytometry using a FACScalibur (Becton Dickinson, Mountain View, Calif., USA). Dead cells were excluded by gating on PI-negative cells, 25000 viable cells were acquired per sample. Data were analyzed using the CellQuest software (Becton Dickinson).

Take “Arg^34, Lys^26(N-ε-(γ-Glu(N-α-hexadecanoyl)))-GLP-1(7-37)”: the “beta-cell proliferation at the dose where volume of beta-cells increased” value with beta-cells [1] (30 ng/g) is “proliferation was not seen”. Besides, in the experiment on beta-cells [1] (subcutaneously bi-daily 30 or 150 μg/kg vs vehicle, n=6 per group, BrDU 6 hours before sacrifice), the “fraction of beta-cells that had incorporated BrDU (percentage of BrDU positive beta-cells)” value was “dose dependent increase”. The “beta-cell fraction of the total pancreas compared to vehicle treated rats” value in the experiment with beta-cells [2] (30 ng/g for 6 weeks) is on record as “significantly higher”. In addition, the “beta-cell fraction of the total pancreas, further increase over the 30 ng/g dose” value with beta-cells [2] (150 ng/g) is listed as “no further increase”. Also, in the experiment with neonatal rat islet cells (100 nM, 24 hours with interleukin 1 40 U/ml, interferon-γ 100 U/ml, tumor necrosis factor-α 100 U/ml), the “reduction in the cytokine-induced apoptosis” value was “approximately 50%”. The “block of cytokine-induced apoptosis in islet cells ex vivo” value in the experiment with neonatal rat islet cells (24 hour incubation with cytokine mix) is given as “able to block”. In the experiment on neonatal rat islet cells (without cytokine mix, 24 hours), the “effect of the compound itself on the level of islet cell apoptosis” value is “no effect”.
